In ChEMBL document CHEMBL5120796, “A novel photocaged B-RafV600E inhibitor toward precise melanoma treatment” (Bioorg Med Chem Lett, 2022):
Active and inactive are the calls of the source. The rule behind the calls is not given here.

Experiments:
[1] = tested on: SK-MEL-1; assay: Antiproliferative activity against human SK-MEL-1 cells harboring […] B-RAF assessed as cell growth inhibition irradiated with 365 nm UV light for 5 mins measured after 72 hrs by CCK-8 analysis; assay type: functional, cell-based; conditions: SK-MEL-1, light or radiation study
[2] = tested on: A-375; assay: Inhibition of ERK phosphorylation in human A-375 cells at 0.1 to 10 uM incubated for 2 hrs irradiated with 365 nm UV light for 5 mins by Western blot analysis; assay type: cell-based; conditions: dose 0.1-10 µM
[3] = tested on: SK-MEL-2; assay: Antiproliferative activity against human SK-MEL-2 cells harboring wild type B-RAF assessed as cell growth inhibition measured after 72 hrs by CCK-8 analysis; assay type: functional, cell-based; conditions: SK-MEL-2, 72 h
[4] = tested on: A-375; assay: Antiproliferative activity against human A-375 cells harboring B-RAF V600E mutant assessed as cell growth inhibition irradiated with sun light for 2.5 mins measured after 72 hrs by CCK-8 analysis; assay type: functional, cell-based; conditions: A-375, light or radiation study
[5] = tested on: A-375; assay: Antiproliferative activity against human A-375 cells harboring B-RAF V600E mutant assessed as cell growth inhibition measured after 72 hrs by CCK-8 analysis; assay type: functional, cell-based; conditions: A-375, 72 h
[6] = tested on: SK-MEL-1; assay: Antiproliferative activity against human SK-MEL-1 cells harboring […] B-RAF assessed as cell growth inhibition measured after 72 hrs by CCK-8 analysis; assay type: functional, cell-based; conditions: SK-MEL-1, 72 h
[7] = Retention time of compound in PBS buffer by UPLC analysis; assay type: physicochemical; conditions: dose 5.85 µg/ml
[8] = tested on: SK-MEL-2; assay: Antiproliferative activity against human SK-MEL-2 cells harboring wild type B-RAF assessed as cell growth inhibition irradiated with 365 nm UV light for 5 mins measured after 72 hrs by CCK-8 analysis; assay type: functional, cell-based; conditions: SK-MEL-2, light or radiation study
[9] = tested on: A-375; assay: Antiproliferative activity against human A-375 cells harboring B-RAF V600E mutant assessed as cell growth inhibition irradiated with 365 nm UV light for 2.5 mins measured after 72 hrs by CCK-8 analysis; assay type: functional, cell-based; conditions: A-375, light or radiation study
[10] = tested on: A-375; assay: Antiproliferative activity against human A-375 cells harboring B-RAF V600E mutant assessed as cell growth inhibition irradiated with sun light for 0.5 mins measured after 72 hrs by CCK-8 analysis; assay type: functional, cell-based; conditions: A-375, light or radiation study
[11] = tested on: A-375; assay: Antiproliferative activity against human A-375 cells harboring B-RAF V600E mutant assessed as cell growth inhibition irradiated with 365 nm UV light for 0.5 mins measured after 72 hrs by CCK-8 analysis; assay type: functional, cell-based; conditions: A-375, light or radiation study
[12] = tested on: A-375; assay: Antiproliferative activity against human A-375 cells harboring B-RAF V600E mutant assessed as cell growth inhibition irradiated with sun light for 10 mins measured after 72 hrs by CCK-8 analysis; assay type: functional, cell-based; conditions: A-375, light or radiation study
[13] = biological target: Serine/threonine-protein kinase B-raf (Homo sapiens, UniProt P15056, V600E); assay: Inhibition of GST-tagged recombinant human B-RAF V600E mutant expressed in baculovirus expression system incubated for 1 hr in presence of ATP by FRET-based Z'-Lyte analysis
[14] = tested on: A-375; assay: Antiproliferative activity against human A-375 cells harboring B-RAF V600E mutant assessed as cell growth inhibition irradiated with 365 nm UV light for 5 mins measured after 72 hrs by CCK-8 analysis; assay type: functional, cell-based; conditions: A-375, light or radiation study
[15] = tested on: A-375; assay: Inhibition of ERK phosphorylation in human A-375 cells at 0.1 to 10 uM incubated for 2 hrs by Western blot analysis; assay type: cell-based; conditions: dose 0.1-10 µM
[16] = tested on: A-375; assay: Antiproliferative activity against human A-375 cells harboring B-RAF V600E mutant assessed as cell growth inhibition irradiated with 365 nm UV light for 10 mins measured after 72 hrs by CCK-8 analysis; assay type: functional, cell-based; conditions: A-375, light or radiation study
[17] = tested on: A-375; assay: Antiproliferative activity against human A-375 cells harboring B-RAF V600E mutant assessed as cell growth inhibition irradiated with sun light for 5 mins measured after 72 hrs by CCK-8 analysis; assay type: functional, cell-based; conditions: A-375, light or radiation study
[18] = Photorelease ability in PBS buffer assessed as N-(2,4-difluoro-3-((3-(4-fluorophenyl)-1H-pyrazolo[3,4-b]pyridin-5-yl)ethynyl)phenyl)pyridine-3-sulfonamide formation by measuring half life at 5.85 ug/ml irradiated with sun light by UPLC analysis; assay type: functional; conditions: dose 5.85 µg/ml
[19] = Photorelease ability in PBS buffer assessed as N-(2,4-difluoro-3-((3-(4-fluorophenyl)-1H-pyrazolo[3,4-b]pyridin-5-yl)ethynyl)phenyl)pyridine-3-sulfonamide formation by measuring half life at 5.85 ug/ml irradiated with 365 nm UV light by UPLC analysis; assay type: functional; conditions: dose 5.85 µg/ml

Sequence of Serine/threonine-protein kinase B-raf (P15056 2-766 V600E limits assumed): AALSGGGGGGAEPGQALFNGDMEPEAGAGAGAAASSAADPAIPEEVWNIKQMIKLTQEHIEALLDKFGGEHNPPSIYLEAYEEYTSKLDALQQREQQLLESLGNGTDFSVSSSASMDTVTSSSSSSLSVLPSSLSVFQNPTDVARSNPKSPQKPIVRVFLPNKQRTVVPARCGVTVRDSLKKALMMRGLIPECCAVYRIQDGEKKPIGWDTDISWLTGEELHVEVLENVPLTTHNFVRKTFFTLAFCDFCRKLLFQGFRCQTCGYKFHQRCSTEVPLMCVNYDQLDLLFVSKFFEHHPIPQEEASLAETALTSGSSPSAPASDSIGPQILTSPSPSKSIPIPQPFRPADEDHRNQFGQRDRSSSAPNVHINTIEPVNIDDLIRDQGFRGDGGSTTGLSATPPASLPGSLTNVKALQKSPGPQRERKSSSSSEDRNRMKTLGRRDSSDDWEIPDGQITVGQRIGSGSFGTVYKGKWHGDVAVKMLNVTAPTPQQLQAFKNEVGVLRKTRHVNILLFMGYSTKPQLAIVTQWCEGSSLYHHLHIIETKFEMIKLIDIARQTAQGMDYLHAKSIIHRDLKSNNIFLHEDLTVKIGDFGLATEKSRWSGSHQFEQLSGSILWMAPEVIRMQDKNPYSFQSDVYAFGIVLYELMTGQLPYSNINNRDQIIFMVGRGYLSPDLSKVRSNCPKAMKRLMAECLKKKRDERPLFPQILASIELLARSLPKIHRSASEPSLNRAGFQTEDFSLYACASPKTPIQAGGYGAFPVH

Question: What does the source list for `O=S(=O)(Nc1ccc(F)c(C#Cc2cnc3[nH]nc(-c4ccc(F)cc4)c3c2)c1F)c1cccnc1`?
Answer: IC50 [1]: 560 nM; inhibition [2]: Active; IC50 [3]: > 10000 nM; IC50 [4]: 160 nM; IC50 [5]: 210 nM; IC50 [6]: 760 nM; Retention_time [7]: 1.7 min; IC50 [8]: > 10000 nM; IC50 [9]: 170 nM; IC50 [10]: 160 nM; IC50 [11]: 190 nM; IC50 [12]: 190 nM; IC50 [13]: 21 nM; IC50 [14]: 180 nM; inhibition [15]: Active; IC50 [16]: 220 nM; IC50 [17]: 170 nM

Question: What does the source list for `COc1cc(CN(c2ccc(F)c(C#Cc3cnc4[nH]nc(-c5ccc(F)cc5)c4c3)c2F)S(=O)(=O)c2cccnc2)c([N+](=O)[O-])cc1OC`?
Answer: IC50 [1]: 840 nM; inhibition [2]: Active; IC50 [3]: > 10000 nM; IC50 [4]: 340 nM; IC50 [5]: > 10000 nM; IC50 [6]: > 10000 nM; Retention_time [7]: 5.9 min; IC50 [8]: > 10000 nM; IC50 [9]: 370 nM; IC50 [10]: 850 nM; IC50 [11]: 700 nM; IC50 [12]: 290 nM; IC50 [13]: > 10000 nM; T1/2 [18]: 2.8 min; IC50 [14]: 210 nM; IC50 [16]: 240 nM; T1/2 [19]: 2 min; IC50 [17]: 280 nM
